Literature values in US20090062239A1, “THROMBIN RECEPTOR ANTAGONISTS AS PROPHYLAXIS TO COMPLICATIONS FROM CARDIOPULMONARY SURGERY” (Schering Corporation, priority 2005, published 2009).

Legend:
[1] = high-risk patients undergoing primary CABG, those on aspirin, reoperative bypass
[2] = vein grafts closing off between two weeks and one year after CABG surgery
[3] = treated patients, cardiac/coronary surgery

risk for postoperative hemorrhage [3]	Molecule	other results
	Aprotinin	postoperative blood loss [1]: significantly decreases; transfusion requirements (both units and number of patients) [1]: significantly decreases
	CC(=O)Oc1ccccc1C(=O)O [aspirin]	reduction of later vein graft closings [2]: 50%
greater risk	COC(=O)[C@H](c1ccccc1Cl)N1CCc2sccc2C1 [clopidogrel]	
greater risk	low-molecular weight heparin	

Molecule	risk for postoperative hemorrhage [3]	other results
abciximab	greater risk	
